Patent US10865196B2, “Compounds for treatment of cancer” (University of Tennessee Research Foundation, priority 2008, dated 2020)
Like-named read-outs stand apart in the source and are kept apart here.

What was measured:
OVCAR-8 = experiment: SRB antiproliferation assay, OVCAR-8 ovarian cancer; details: Homo sapiens, OVCAR-8, read-out: IC50 OVCAR-8
NCI/ADR-RES = experiment: SRB antiproliferation assay, P-gp over-expressing NCI/ADR-RES
[1] = system: prostate cancer cells (LNCaP, PC-3, DU-145, PPC-1); experiment: SRB assay, prostate cancer cells; assay type: cell-based, human; details: for IC50: Homo sapiens, range over prostate cancer cell lines, read-out: IC50 values against prostate cancer cells
B16-F1 = experiment: SRB antiproliferation assay, B16-F1 melanoma; assay type: cell-based, mouse; details: Mus musculus, read-out: IC50 B16-F1 (converted)
From the text: (§1) For melanoma assays, one human melanoma cell line (A375) and one mouse melanoma cell line (B16-F1) were used. […] Fibroblast cells were used as a control to determine the selectivity of these compounds against melanoma. Human dermal fibroblast cells were purchased from Cascade Biologics, Inc., Portland, Oreg., USA.

A375 = experiment: SRB antiproliferation assay, A375 melanoma; assay type: cell-based, human; details: read-out: IC50 A375 (converted)
From the text: as §1

melanoma cells = experiment: SRB assay, melanoma cells; assay type: cell-based; details: range over melanoma cell lines; read-out: IC50 values against melanoma cells
Protocol: (§2) For melanoma assays, one human melanoma cell line (A375) and one mouse melanoma cell line (B16-F1) were used. […] Fibroblast cells were used as a control to determine the selectivity of these compounds against melanoma. Human dermal fibroblast cells were purchased from Cascade Biologics, Inc., Portland, Oreg., USA. […] Cells were exposed to a wide range of concentrations for 48 h in round-bottomed 96-well plates. […] After cells were air-dried overnight and stained with SRB solution, total proteins were measured at 560 nm with a plate reader.

PC-3 = experiment: SRB antiproliferation assay, PC-3 prostate cancer; details: read-out: IC50 PC-3, SRB
LNCaP = experiment: SRB antiproliferation assay, LNCaP prostate cancer; details: read-out: IC50 LNCaP, SRB
PPC-1 = experiment: SRB antiproliferation assay, PPC-1 prostate cancer; details: read-out: IC50 PPC-1, SRB
DU 145 = experiment: SRB antiproliferation assay, DU 145 prostate cancer; details: read-out: IC50 DU 145, SRB
[2] = system: melanoma (A375, B16-F1) and prostate cancer cells (DU145, PC-3, LNCaP, PPC-1); experiment: SRB assay, range over melanoma and prostate cancer cell lines; assay type: cell-based; details: for IC50: range over the examined cell lines, read-out: IC50 over melanoma and prostate cancer cell lines
Protocol: as §2

WM164 = experiment: SRB antiproliferation assay, WM-164 melanoma; assay type: cell-based; details: Homo sapiens
[3] = system: Human dermal fibroblast cells; experiment: SRB assay, fibroblast control cells; assay type: cell-based
Protocol: as §2

COc1cc(C(=O)c2cccc(-c3ccccc3)n2)cc(OC)c1OC gave an IC50 (OVCAR-8) of 33 ± 3 nM and an IC50 (NCI/ADR-RES; Homo sapiens, NCI/ADR-RES, read-out: IC50 NCI/ADR-RES) of 13 ± 0.8 nM.
COc1cc(C(=NC#N)c2csc(-c3ccccc3)n2)cc(OC)c1OC gave a Resistance factor (NCI/ADR-RES; NCI/ADR-RES vs OVCAR-8) of 0.4.
In the case of COc1cc(C(=O)c2csc(-c3ccc(CN)cc3)n2)cc(OC)c1OC, the IC50 (OVCAR-8) is reported as 26 ± 2 nM.
For COc1cc(C(=O)c2csc(Nc3ccccc3)n2)cc(OC)c1OC [5-a], the “activity in prostate cancer cell lines, in words” value [1] was “potent activity”.
For COc1cc(C(=O)c2csc(Nc3ccc(F)cc3)n2)cc(OC)c1OC [5-c], the “activity in prostate cancer cell lines, in words” value [1] was “potent activity”.
With COc1cc(C(=O)c2csc(Nc3ccc(Cl)cc3)n2)cc(OC)c1OC [5-d] the “activity in prostate cancer cell lines, in words” value [1] was “potent activity”.
COc1cc(C(=O)c2csc(-c3ccccc3F)n2)cc(OC)c1OC [8l, [2-(2-Fluorophenyl)-thiazol-4-yl]-(3,4,5-trimethoxyphenyl)-methanone] showed an IC50 (B16-F1; B16-F1, SRB) of 27 nM, an IC50 (A375; Homo sapiens, A-375, SRB) of 30 nM and an IC50 (melanoma cells) of 27 to 30 nM. It also gave an IC50 [1] of 52 to 114 nM, a melting point of 90 to 102 °C and an IC50 (PC-3) of 82 nM. The IC50 (LNCaP) was 53 nM, the IC50 (PPC-1) was 52 nM and the IC50 (DU 145) was 114 nM.
Compound COc1cc(C(=O)c2csc(-c3cccc(F)c3)n2)cc(OC)c1OC [8m, [2-(3-Fluorophenyl)-thiazol-4-yl](3,4,5-trimethoxyphenyl)-methanone] has an IC50 (B16-F1; B16-F1, SRB) of 287 nM, an IC50 (A375; Homo sapiens, A-375, SRB) of 304 nM and an IC50 (melanoma cells) of 287 to 304 nM. The IC50 [1] was 23 to 46 nM, the IC50 (PC-3) was 24 nM and the IC50 (LNCaP) was 11 nM. It also gave an IC50 (PPC-1) of 21 nM and an IC50 (DU 145) of 35 nM.
Compound COc1cc(C(=O)c2csc(-c3ccc(C#N)cc3)n2)cc(OC)c1OC [8q, 4-[4-(3,4,5-Trimethoxybenzoyl)-thiazol-2-yl]-benzonitrile] has an IC50 (B16-F1; B16-F1, SRB) of 53 nM, an IC50 (A375; Homo sapiens, A-375, SRB) of 59 nM and an IC50 (PC-3) of 30 nM. It also gave an IC50 (LNCaP) of 15 nM, an IC50 (PPC-1) of 19 nM and an IC50 (DU 145) of 52 nM.
COc1cc(C(=O)c2csc(-c3ccc(C(F)(F)F)cc3)n2)cc(OC)c1OC [8t, (2-(4-(Trifluoromethyl)-phenyl)-thiazol-4-yl)(3,4,5-trimethoxyphenyl)-methanone] gave an IC50 (B16-F1; B16-F1, SRB) of 92 nM, an IC50 (A375; Homo sapiens, A-375, SRB) of 23 nM and an IC50 (PC-3) of 58 nM. The IC50 (LNCaP) was 94 nM, the IC50 (PPC-1) was 76 nM and the IC50 (DU 145) was 50 nM.
Compound COc1cc(C(=O)c2csc(-c3ccc(Br)cc3)n2)cc(OC)c1OC [8u, [2-(4-Bromophenyl)-thiazol-4-yl]-(3,4,5-trimethoxyphenyl)-methanone] has an IC50 (B16-F1; B16-F1, SRB) of 32 nM, an IC50 (A375; Homo sapiens, A-375, SRB) of 13 nM and an IC50 [1] of 18 to 44 nM. The IC50 (PC-3) was 18 nM, the IC50 (LNCaP) was 44 nM and the IC50 (PPC-1) was 21 nM. For the same compound, the IC50 (DU 145) was 21 nM.
Work on CCc1ccc(-c2nc(C(=O)c3cc(OC)c(OC)c(OC)c3)cs2)cc1 [8v, [2-(4-Ethyl-phenyl)-thiazol-4-yl]-(3,4,5-trimethoxy-phenyl)-methanone] yielded an IC50 (B16-F1; B16-F1, SRB) of 70 nM, an IC50 [2] of 17 to 70 nM and an IC50 (PC-3) of 27 nM. The IC50 (LNCaP) was 60 nM, the IC50 (PPC-1) was 22 nM and the IC50 (DU 145) was 31 nM.
COc1cc(C(=O)c2csc(-c3ccncc3)n2)cc(OC)c1OC [8x, [2-(Pyridin-4-yl)-thiazol-4-yl]-(3,4,5-trimethoxyphenyl)-methanone] gave an IC50 (B16-F1; B16-F1, SRB) greater than 100000 nM, an IC50 (A375; Homo sapiens, A-375, SRB) greater than 100000 nM and a melting point of 178 to 180 °C. It also gave an IC50 (PC-3) greater than 20000 nM, an IC50 (LNCaP) greater than 20000 nM and an IC50 (PPC-1) greater than 20000 nM. The IC50 (DU 145) was greater than 20000 nM.
With COc1cc(C(=O)c2csc(-c3ncccn3)n2)cc(OC)c1OC [8y, [2-(Pyrimidin-2-yl)-thiazol-4-yl]-(3,4,5-trimethoxyphenyl)-methanone] the IC50 (B16-F1; B16-F1, SRB) was 2300 nM, the IC50 (A375; Homo sapiens, A-375, SRB) was 4100 nM and the IC50 [2] was 11800 to 41000 nM. The melting point was 190 to 191 °C, the IC50 (PC-3) was 2660 nM and the IC50 (LNCaP) was 2370 nM. The IC50 (PPC-1) was 1190 nM and the IC50 (DU 145) was 2810 nM.
Compound Cc1ccc(-c2nc(C(=O)c3ccc(F)cc3)cs2)cc1 [11-11] has an IC50 (B16-F1; B16-F1, SRB) of 4900 nM, an IC50 (A375; Homo sapiens, A-375, SRB) of 3470 nM and an IC50 (WM164) of 4700 nM.
Work on O=C(c1ccc(OC(F)(F)F)cc1)c1csc(-c2ccccc2)n1 [13-13] yielded an IC50 (B16-F1; B16-F1, SRB) greater than 10000 nM, an IC50 (A375; Homo sapiens, A-375, SRB) greater than 10000 nM and an IC50 (WM164) greater than 10000 nM.
For COc1cc(C(=O)c2c[nH]c(-c3cn(S(=O)(=O)c4ccccc4)c4ccccc34)n2)cc(OC)c1OC [17yab, (2-(1-(Phenylsulfonyl)-1H-indol-3-yl)-1H-imidazol-4-yl)(3,4,5-trimethoxyphenyl)methanone], the IC50 (B16-F1; B16-F1, SRB) was 539 nM, the IC50 (A375; Homo sapiens, A-375, SRB) was 481 nM and the IC50 (WM164) was 468 nM. For the same compound, the IC50 (PC-3) was 148 nM, the IC50 (LNCaP) was 234 nM and the IC50 (PPC-1) was 209 nM. For the same compound, the IC50 (DU 145) was 592 nM.
For COc1ccc(C(=O)n2ccnc2-c2ccc(F)cc2)cc1 [24-24], the IC50 (B16-F1; B16-F1, SRB) was greater than 10000 nM, the IC50 (A375; Homo sapiens, A-375, SRB) was greater than 10000 nM and the IC50 (WM164) was greater than 10000 nM.
Compound CC(=O)Nc1ccc(C2N[C@H](C(=O)Nc3ccc4c(c3)Cc3ccccc3-4)CS2)cc1 (stereo partly drawn) [ATCAA-2, reference compound] has an IC50 (A375; SRB, 48 h) of 2100 ± 100 nM, an IC50 [2] of 1600 to 3900 nM and an IC50 (PC-3; 96 h) of 2100 ± 100 nM. For the same compound, the IC50 (LNCaP; 96 h) was 3500 ± 700 nM, the IC50 (PPC-1; 96 h) was 1600 ± 100 nM and the IC50 (DU 145; 96 h) was 1900 ± 300 nM.
With COc1cc(C(=O)c2cscn2)cc(OC)c1OC [compound 10, Thiazol-4-yl-(3,4,5-trimethoxy-phenyl)-methanone] the IC50 (B16-F1; B16-F1, SRB) was greater than 100000 nM, the IC50 (A375; Homo sapiens, A-375, SRB) was greater than 100000 nM and the “antiproliferative activity against melanoma and prostate cancer cell lines, in words” value ([2]; compared with 8f or parent compounds) was “total loss of activity”. For the same compound, the melting point was 106 to 108 °C, the IC50 (PC-3) was greater than 20000 nM and the IC50 (LNCaP) was greater than 20000 nM. For the same compound, the IC50 (PPC-1) was greater than 20000 nM and the IC50 (DU 145) was greater than 20000 nM.
COc1cc(/C(=N/O)c2csc(-c3ccccc3)n2)cc(OC)c1OC [compound 33, (Z)-(2-Phenylthiazol-4-yl)(3,4,5-trimethoxyphenyl)methanone oxime] gave an IC50 (B16-F1; B16-F1, 48 h, SRB, 48 h) of 320 nM, an IC50 (A375; Homo sapiens, A-375, 48 h, SRB, 48 h) of 180 nM and an IC50 [3] of 360 nM. It also gave a melting point of 150 to 153 °C.
In the case of COc1cc(/C(=N\O)c2csc(-c3ccccc3)n2)cc(OC)c1OC [compound 34, (E)-(2-Phenylthiazol-4-yl)(3,4,5-trimethoxyphenyl)methanone oxime], the IC50 [3] is reported as 10100 nM, the melting point is reported as 176 to 177 °C and the IC50 (PC-3; 96 h) is reported as greater than 1000 nM. The IC50 (LNCaP; 96 h) was greater than 1000 nM, the IC50 (PPC-1; 96 h) was greater than 1000 nM and the IC50 (DU 145; 96 h) was greater than 1000 nM.
In the case of COc1cc(/C(=N/N)c2csc(-c3ccccc3)n2)cc(OC)c1OC [compound 35, (Z)-4-(Hydrazono(3,4,5-trimethoxyphenyl)methyl)-2-phenylthiazole], the IC50 [3] is reported as 1900 nM and the melting point is reported as 117 to 119 °C.
Work on COc1cc(/C(=N\N)c2csc(-c3ccccc3)n2)cc(OC)c1OC [compound 36, (E)-4-(Hydrazono(3,4,5-trimethoxyphenyl)methyl)-2-phenylthiazole] yielded an IC50 [3] of 1000 nM and a melting point of 65 to 66 °C.
